In patent US20230382924A1, “MODULATORS OF CYSTIC FIBROSIS TRANSMEMBRANE CONDUCTANCE REGULATOR” (VERTEX PHARMACEUTICALS INCORPORATED, priority 2020, published 2023):
Read-outs that look alike come from different tables or passages of the source.

Target: CFTR (Homo sapiens, UniProt P13569)
Test: Membrane Potential Dye, Enteroid Assay A
Format: cell-based
Settings: for EC50: read-out: Ent. A EC50
How it was run: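 Signal is reported as % Activity relative to a triple CFTR modulator control (3 μM + 3 μM + 300 nM acute). Read-out: membrane potential fluorescence (20 μM methyl oxonol) monitored for 15 min after chloride-free stimulation. Dye loading took 25 min at room temperature in Bath 1 buffer containing CaCC blockers.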

Chain of CFTR (P13569 with tags, fused parts or gaps DEL508-508): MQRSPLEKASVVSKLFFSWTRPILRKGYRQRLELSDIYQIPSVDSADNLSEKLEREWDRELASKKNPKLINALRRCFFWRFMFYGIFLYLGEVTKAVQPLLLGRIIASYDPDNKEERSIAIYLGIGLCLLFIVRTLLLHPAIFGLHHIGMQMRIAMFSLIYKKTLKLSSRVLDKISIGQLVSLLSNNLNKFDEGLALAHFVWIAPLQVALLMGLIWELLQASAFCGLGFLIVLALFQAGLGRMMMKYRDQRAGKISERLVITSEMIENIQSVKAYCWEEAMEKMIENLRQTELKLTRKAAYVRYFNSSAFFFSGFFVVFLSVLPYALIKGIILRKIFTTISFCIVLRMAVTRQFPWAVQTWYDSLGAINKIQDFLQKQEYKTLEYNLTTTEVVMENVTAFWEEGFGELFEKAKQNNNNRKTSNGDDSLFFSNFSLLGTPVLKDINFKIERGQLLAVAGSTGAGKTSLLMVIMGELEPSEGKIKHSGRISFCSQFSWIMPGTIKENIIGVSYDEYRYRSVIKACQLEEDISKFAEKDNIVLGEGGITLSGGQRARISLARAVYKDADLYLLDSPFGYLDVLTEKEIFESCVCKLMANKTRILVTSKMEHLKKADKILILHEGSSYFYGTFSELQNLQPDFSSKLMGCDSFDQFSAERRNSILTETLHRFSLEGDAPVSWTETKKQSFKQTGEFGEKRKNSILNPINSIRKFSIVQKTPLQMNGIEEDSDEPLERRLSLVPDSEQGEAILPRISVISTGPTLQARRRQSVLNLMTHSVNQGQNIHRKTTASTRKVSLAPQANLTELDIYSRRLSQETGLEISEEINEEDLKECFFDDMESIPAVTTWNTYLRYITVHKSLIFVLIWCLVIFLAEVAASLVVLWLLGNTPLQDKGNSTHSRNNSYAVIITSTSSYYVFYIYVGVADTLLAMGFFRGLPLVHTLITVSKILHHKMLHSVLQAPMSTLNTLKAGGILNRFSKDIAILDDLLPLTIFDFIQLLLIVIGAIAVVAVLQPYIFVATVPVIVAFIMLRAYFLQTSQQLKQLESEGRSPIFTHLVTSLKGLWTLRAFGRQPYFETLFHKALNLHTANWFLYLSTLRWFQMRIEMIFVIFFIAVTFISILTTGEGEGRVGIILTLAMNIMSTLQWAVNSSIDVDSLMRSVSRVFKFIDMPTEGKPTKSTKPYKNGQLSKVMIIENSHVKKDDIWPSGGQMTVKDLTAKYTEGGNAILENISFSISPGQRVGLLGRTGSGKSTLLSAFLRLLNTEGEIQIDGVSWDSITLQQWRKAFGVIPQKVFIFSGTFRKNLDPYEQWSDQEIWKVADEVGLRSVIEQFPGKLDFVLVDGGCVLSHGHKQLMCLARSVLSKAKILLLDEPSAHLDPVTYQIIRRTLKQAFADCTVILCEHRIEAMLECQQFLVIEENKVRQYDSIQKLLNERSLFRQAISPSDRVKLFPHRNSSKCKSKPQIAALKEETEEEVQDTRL

With `Cc1cccc(C)c1-c1cc2nc(n1)NS(=O)(=O)c1cccc(c1)C(=O)NC(C(=O)NCc1ccccc1)CO2` (stereo not drawn) [Compound 236] the “Ent. A Max Activity” value (Table 8) was “+ (+ is <30%)”.
`Cc1cccc(C)c1-c1cc2nc(n1)NS(=O)(=O)c1cccc(c1)C(=O)NCC1(CCN(C[C@H]3COC(C)(C)N3C(=O)OC(C)(C)C)CC1)CO2` [Compound 439] was tested, and the “Ent. A Max Activity” value (Enteroid Assay A) was “++ (++ is 30-60%)” and the EC50 (Enteroid Assay A) was 3 to 30 µM.
In the case of `Cc1cccc(C)c1-c1cc2nc(n1)NS(=O)(=O)c1cccc(c1)C(=O)NCC(c1ccc(C(C)C)cc1)O2` (stereo not drawn) [Compound 275], the EC50 (Table 8) is reported as under 1 µM.
In the case of `Cc1cccc(C)c1-c1cc2nc(n1)NS(=O)(=O)c1cccc(c1)C(=O)NCC1(CCN(C(=O)CO[C@@H]3C[C@H](C)CC[C@H]3C(C)C)CC1)CO2` [Compound 468], the “Ent. A Max Activity” value (Enteroid Assay A) is reported as “++ (++ is 30-60%)” and the EC50 (Enteroid Assay A) is reported as 1 to 3 µM.
With `Cc1cccc(C)c1-c1cc2nc(n1)NS(=O)(=O)c1cccc(c1)C(=O)NCC1(CCN(C(=O)[C@H]3[C@H](c4ccccc4)C3(C)C)CC1)CO2` [Compound 465] the “Ent. A Max Activity” value (Enteroid Assay A) was “++ (++ is 30-60%)” and the EC50 (Enteroid Assay A) was 1 to 3 µM.
For `Cc1cccc(C)c1-c1cc2nc(n1)NS(=O)(=O)c1cccc(c1)C(=O)N[C@H]1CCN(C3CC4(CCCC4)C3)C[C@H]1O2` [Compound 384], the “Ent. A Max Activity” value (Table 9) was “+++ (+++ is >60%)” and the EC50 (Table 9) was 1 to 3 µM.
For `Cc1cccc(C)c1-c1cc2nc(n1)NS(=O)(=O)c1cccc(c1)C(=O)NC[C@@H](c1ccc(C(C)(C)C(F)(F)F)cc1)O2` [Compound 262], the “Ent. A Max Activity” value (Table 9) was “+++ (+++ is >60%)” and the EC50 (Table 9) was under 1 µM.
In the case of `CC(C)C[C@@H]1COc2cc(-n3ccc(C(F)(F)F)n3)nc(n2)NS(=O)(=O)c2cccc(c2)C(=O)N1` [Compound 308], the “Ent. A Max Activity” value (Table 8) is reported as “+ (+ is <30%)”.
`CC(C)C[C@@H]1COc2cc(-c3ccccc3CC(C)(C)C)nc(n2)NS(=O)(=O)c2cccc(c2)C(=O)N1` [Compound 332] was tested, and the “Ent. A Max Activity” value (Enteroid Assay A) was “++ (++ is 30-60%)” and the EC50 (Enteroid Assay A) was under 1 µM.
`Cc1cccc(C2CNC(=O)c3cccc(c3)S(=O)(=O)Nc3nc(cc(-c4c(C)cccc4C)n3)O2)c1` (stereo not drawn) [Compound 404] was tested, and the “Ent. A Max Activity” value (Table 8) was “+++ (+++ is >60%)” and the EC50 (Table 8) was under 1 µM.
For `Cc1cccc(C)c1-c1cc2nc(n1)NS(=O)(=O)c1cccc(c1)C(=O)NCC1(CCN(Cc3ccccc3)CC1)CO2` [Compound 442], the EC50 (Enteroid Assay A) was 3 to 30 µM.
`COCCOc1ccc(C2CNC(=O)c3cccc(c3)S(=O)(=O)Nc3nc(cc(-c4c(C)cccc4C)n3)O2)cc1` (stereo not drawn) [Compound 120] was tested, and the “Ent. A Max Activity” value (Table 8) was “+ (+ is <30%)”.
With `COc1cc(Cc2cccc(C)c2-c2cc3nc(n2)NS(=O)(=O)c2cccc(c2)C(=O)N[C@H](CC(C)C)CO3)cc(OC)c1` [Compound 167] the “Ent. A Max Activity” value (Table 9) was “+++ (+++ is >60%)” and the EC50 (Table 9) was under 1 µM.
For `Cc1cccc(C)c1-c1cc2nc(n1)NS(=O)(=O)c1cccc(c1)C(=O)NCC(c1cccc(C(C)(C)C)c1)O2` (stereo not drawn) [Compound 247], the “Ent. A Max Activity” value (Table 8) was “+++ (+++ is >60%)” and the EC50 (Table 8) was under 1 µM.
`Cc1cccc(C)c1-c1cc2nc(n1)NS(=O)(=O)c1cccc(c1)C(=O)N[C@H](CC1CCCCC1)[C@@H](C)O2` [Compound 144] was tested, and the “Ent. A Max Activity” value (Table 8) was “+++ (+++ is >60%)” and the EC50 (Table 8) was under 1 µM.
For `Cc1cccc(C)c1-c1cc2nc(n1)NS(=O)(=O)c1cccc(c1)C(=O)NC[C@@H](c1ccc(C(C)(F)F)cc1)O2` (stereo in doubt) [Compound 400], the “Ent. A Max Activity” value (Table 8) was “+ (+ is <30%)” and the EC50 (Table 8) was 1 to 3 µM.
With `Cc1cccc(C)c1-c1cc2nc(n1)NS(=O)(=O)c1cccc(c1)C(=O)NCC(c1ccc(C3(C(F)(F)F)CC3)cc1)O2` (single isomer, unassigned) [Compound 10, 6-(2,6-dimethylphenyl)-2,2-dioxo-10-[4-[1-(trifluoromethyl)cyclopropyl]phenyl]-9-oxa-2λ^6-thia-3,5,12,19-tetrazatricyclo[12.3.1.14,8]nonadeca-1(18),4(19),5,7,14,16-hexaen-13-one] the EC50 (Table 8) was under 1 µM.
For `CC(C)C[C@@H]1COc2cc(C3=CCCC3)nc(n2)NS(=O)(=O)c2cccc(c2)C(=O)N1` [Compound 321], the EC50 (Enteroid Assay A) was 3 to 30 µM.
With `Cc1cccc(C)c1-c1cc2nc(n1)NS(=O)(=O)c1cccc(c1)C(=O)NC[C@@H](CN1CCCCC1)O2` (stereo in doubt) [Compound 409] the “Ent. A Max Activity” value (Table 8) was “+ (+ is <30%)”.
`Cc1cccc(C)c1-c1cc2nc(n1)NS(=O)(=O)c1cccc(c1)C(=O)NCC1(CCN(CCC(C)CC(C)(C)C)CC1)CO2` (stereo not drawn) [Compound 441] was tested, and the “Ent. A Max Activity” value (Enteroid Assay A) was “+++ (+++ is >600%)” and the EC50 (Enteroid Assay A) was under 1 µM.
For `Cc1cccc(C)c1-c1cc2nc(n1)NS(=O)(=O)c1cccc(c1)C(=O)NC1CCCC[C@@H]1O2` (stereo in doubt) [Compound 485], the EC50 (Enteroid Assay A) was 1 to 3 µM.
`CCC(CC)(CC)c1ccc([C@@H]2CNC(=O)c3cccc(c3)S(=O)(=O)Nc3nc(cc(-c4c(C)cccc4C)n3)O2)cc1` [Compound 259] was tested, and the “Ent. A Max Activity” value (Table 9) was “+ (+ is <30%)” and the EC50 (Table 9) was under 1 µM.
In the case of `CC(C)C[C@@H]1COc2cc(-c3ccccc3-c3ccccc3)nc(n2)NS(=O)(=O)c2cccc(c2)C(=O)N1` [Compound 101, (11R)-11-Isobutyl-2,2-dioxo-6-(2-phenylphenyl)-9-oxa-2λ^6-thia-3,5,12,19-tetrazatricyclo[12.3.1.14,8]nonadeca-1(18),4,6,8(19),14,16-hexaen-13-one], the “Ent. A Max Activity” value (Table 9) is reported as “+++ (+++ is >60%)” and the EC50 (Table 9) is reported as under 1 µM.
`Cc1cccc(C)c1-c1cc2nc(n1)NS(=O)(=O)c1cc(n(C)n1)C(=O)N[C@@H](CC1CCCCC1)CO2` [Compound 359] was tested, and the “Ent. A Max Activity” value (Table 8) was “+ (+ is <30%)”.
For `Cc1cccc(C)c1-c1cc2nc(n1)NS(=O)(=O)c1cccc(c1)C(=O)N[C@@H]1CCN(C(=O)OC(C)(C)C)C[C@H]1O2` (single isomer, unassigned) [Compound 88, tert-Butyl 20-(2,6-dimethylphenyl)-10,16,16-trioxo-2-oxa-16λ^6-thia-5,9,17,19,22-pentaazatetracyclo[16.3.1.111,15.03,8]tricosa-1(21),11(23),12,14,18(22),19-hexaene-5-carboxylate], the “Ent. A Max Activity” value (Table 9) was “+ (+ is <30%)”.
For `Cc1cccc(C)c1-c1cc2nc(n1)NS(=O)(=O)c1cccc(c1)C(=O)NCC1(CCN(C(=O)[C@]3(C)CCCN3C(=O)OC(C)(C)C)CC1)CO2` [Compound 472], the “Ent. A Max Activity” value (Enteroid Assay A) was “++ (++ is 30-60%)” and the EC50 (Enteroid Assay A) was 3 to 30 µM.
With `CCC(C)(C)C(=O)N1CC[C@H]2NC(=O)c3cccc(c3)S(=O)(=O)Nc3nc(cc(-c4c(C)cccc4C)n3)OC2C1` (stereo in doubt) [Compound 371] the “Ent. A Max Activity” value (Table 9) was “++ (++ is 30-60%)” and the EC50 (Table 9) was 3 to 30 µM.
With `Cc1cccc(C)c1-c1cc2nc(n1)NS(=O)(=O)[C@H]1CCCN(C1)C(=O)N[C@H](CC1CCCCC1)CO2` (stereo in doubt) [Compound 159] the “Ent. A Max Activity” value (Table 8) was “+ (+ is <30%)”.
With `Cc1cccc(C)c1-c1cc2nc(n1)NS(=O)(=O)c1cccc(c1)C(=O)NC[C@@H](c1ccc(CCC3(C(F)(F)F)CC3)cc1)O2` [Compound 145] the “Ent. A Max Activity” value (Table 9) was “++ (++ is 30-60%)” and the EC50 (Table 9) was under 1 µM.
In the case of `Cc1cccc(C)c1-c1cc2nc(n1)NS(=O)(=O)c1cccc(c1)C(=O)NC1CC(CN(C(=O)OCc3ccccc3)C1)O2` (stereo not drawn) [Compound 200], the “Ent. A Max Activity” value (Enteroid Assay A) is reported as “++ (++ is 30-60%)” and the EC50 (Enteroid Assay A) is reported as 3 to 30 µM.
For `CC(C)C[C@@H]1COc2cc(C3CC4CCC3(C)C4(C)C)nc(n2)NS(=O)(=O)c2cccc(c2)C(=O)N1` (stereo partly drawn) [Compound 311], the EC50 (Table 8) was under 1 µM.
Compound `CC(C)C[C@@H]1COc2cc(-c3cc(C(F)(F)F)nn3C)nc(n2)NS(=O)(=O)c2cccc(c2)C(=O)N1` [Compound 338] has an EC50 (Enteroid Assay A) of 3 to 30 µM.
`Cc1cccc(C)c1-c1cc2nc(n1)NS(=O)(=O)c1cccc(c1)C(=O)NCC1(CCN(C(=O)C3CSCCN3C(=O)OC(C)(C)C)CC1)CO2` (stereo not drawn) [Compound 471] was tested, and the “Ent. A Max Activity” value (Enteroid Assay A) was “++ (++ is 30-60%)”.
